Key:
wild oat = test: Test B pre/postemergence wild oat; type: in vivo, Avena fatua
Outline: (§1)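 Response is a visual 0-to-10 score relative to untreated plants, where 0 means no effect and 10 means complete control, taken twelve to sixteen days after application. Treatments went onto soil at planting and onto foliage of 1- to 4-leaf plants, using a surfactant-containing non-phytotoxic solvent.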

soybean = test: Test B pre/postemergence soybean; type: in vivo, Glycine max
Outline: as §1

blackgrass = test: Test B pre/postemergence blackgrass; type: in vivo, Alopecurus myosuroides
Outline: as §1

wheat = test: Test B pre/postemergence wheat; type: in vivo, Triticum aestivum
Outline: as §1

crabgrass = test: Test B pre/postemergence crabgrass; type: in vivo, Digitaria sanguinalis
Outline: as §1

rape = test: Test B pre/postemergence rape; type: in vivo, Brassica napus
Outline: as §1

cocklebur = test: Test B pre/postemergence cocklebur; type: in vivo, Xanthium strumarium
Outline: as §1

velvetleaf = test: Test B pre/postemergence velvetleaf; type: in vivo, Abutilon theophrasti
Outline: as §1

sugar beet = test: Test B pre/postemergence sugar beet; type: in vivo, Beta vulgaris
Outline: as §1

corn = test: Test B pre/postemergence corn; type: in vivo, Zea mays
Outline: as §1

bedstraw = test: Test B pre/postemergence bedstraw; type: in vivo, Galium aparine
Outline: as §1

purple nutsedge = test: Test B pre/postemergence purple nutsedge; type: in vivo, Cyperus rotundus
Outline: as §1

giant foxtail = test: Test B pre/postemergence giant foxtail; type: in vivo, Setaria faberii
Outline: as §1

morningglory = test: Test B pre/postemergence morningglory; type: in vivo, Ipomoea hederacea
Outline: as §1

surinam grass = test: Test B pre/postemergence surinam grass; type: in vivo, Brachiaria decumbens
Outline: as §1

pigweed = test: Test B pre/postemergence pigweed; type: in vivo, Amaranthus retroflexus
Outline: as §1

[1] = Postemergence, Rate 62 g/ha, scale of 0 to 10, 0 is no effect, 10 is complete control
[2] = Postemergence, Rate 125 g/ha, scale 0 to 10, 0 is no effect, 10 is complete control
[3] = Postemergence, Rate 500 g/ha, scale 0 to 10, 0 is no effect, 10 is complete control
[4] = Preemergence, Rate 62 g/ha, scale 0 to 10 (0 no effect, 10 complete control)
[5] = Preemergence, Rate 125 g/ha, scale 0 to 10, 0 is no effect, 10 is complete control
[6] = Preemergence, Rate 500 g/ha, scale of 0 to 10 where 0 is no effect and 10 is complete control
[7] = Rate 250 g/ha, Postemergence, scale of 0 to 10 where 0 is no effect and 10 is complete control

CC(=O)OCCCCn1c(=O)on(C(=O)N(c2ccc(Cl)cc2)C(C)C)c1=O [Compound 536]
Wild oats plant response rating (wild oat; [1]): 0
Wild oats plant response rating (wild oat; [2]): 0
Plant response rating, Wild oats (wild oat; [3]): 0
Wild oats plant response rating (wild oat; [4]): 0
Wild oats plant response rating (wild oat; [5]): 0
Wild oats plant response rating (0 to 10 scale) (wild oat; Preemergence, Rate 250 g/ha): 0
Wild oats plant response rating (wild oat; [6]): 0
Plant response rating, Wild oats (wild oat; [7]): 0
Soybean plant response rating (soybean; [1]): 2
Soybean plant response rating (soybean; [2]): 4
Plant response rating, Soybean (soybean; [3]): 6
Soybean plant response rating (soybean; [4]): 0
Soybean plant response rating (soybean; [5]): 0
Soybean plant response rating (0 to 10 scale) (soybean; Preemergence, Rate 250 g/ha): 0
Soybean plant response rating (soybean; [6]): 0
Plant response rating, Soybean (soybean; [7]): 4
Blackgrass plant response rating (blackgrass; [1]): 0
Blackgrass plant response rating (blackgrass; [2]): 0
Plant response rating, Blackgrass (blackgrass; [3]): 0
Blackgrass plant response rating (blackgrass; [4]): 0
Blackgrass plant response rating (blackgrass; [5]): 0
Blackgrass plant response rating (0 to 10 scale) (blackgrass; Preemergence, Rate 250 g/ha): 0
Blackgrass plant response rating (blackgrass; [6]): 0
Plant response rating, Blackgrass (blackgrass; [7]): 0
Wheat plant response rating (wheat; [1]): 0
Wheat plant response rating (wheat; [2]): 0
Plant response rating, Wheat (wheat; [3]): 0
Wheat plant response rating (wheat; [4]): 0
Wheat plant response rating (wheat; [5]): 0
Wheat plant response rating (0 to 10 scale) (wheat; Preemergence, Rate 250 g/ha): 0
Wheat plant response rating (wheat; [6]): 0
Plant response rating, Wheat (wheat; [7]): 0
Crabgrass plant response rating (crabgrass; [1]): 0
Crabgrass plant response rating (crabgrass; [2]): 5
Plant response rating, Crabgrass (crabgrass; [3]): 3
Crabgrass plant response rating (crabgrass; [4]): 0
Crabgrass plant response rating (crabgrass; [5]): 0
Crabgrass plant response rating (0 to 10 scale) (crabgrass; Preemergence, Rate 250 g/ha): 0
Crabgrass plant response rating (crabgrass; [6]): 2
Plant response rating, Crabgrass (crabgrass; [7]): 5
Rape plant response rating (rape; [1]): 0
Rape plant response rating (rape; [2]): 0
Plant response rating, Rape (rape; [3]): 0
Rape plant response rating (rape; [4]): 0
Rape plant response rating (rape; [5]): 0
Rape plant response rating (0 to 10 scale) (rape; Preemergence, Rate 250 g/ha): 0
Rape plant response rating (rape; [6]): 0
Plant response rating, Rape (rape; [7]): 0
Cocklebur plant response rating (cocklebur; [1]): 0
Cocklebur plant response rating (cocklebur; [2]): 0
Plant response rating, Cocklebur (cocklebur; [3]): 0
Cocklebur plant response rating (cocklebur; [4]): 0
Cocklebur plant response rating (cocklebur; [5]): 0
Cocklebur plant response rating (0 to 10 scale) (cocklebur; Preemergence, Rate 250 g/ha): 0
Cocklebur plant response rating (cocklebur; [6]): 0
Plant response rating, Cocklebur (cocklebur; [7]): 0
Velvetleaf plant response rating (velvetleaf; [1]): 0
Velvetleaf plant response rating (velvetleaf; [2]): 0
Plant response rating, Velvetleaf (velvetleaf; [3]): 0
Velvetleaf plant response rating (velvetleaf; [4]): 0
Velvetleaf plant response rating (velvetleaf; [5]): 0
Velvetleaf plant response rating (0 to 10 scale) (velvetleaf; Preemergence, Rate 250 g/ha): 0
Velvetleaf plant response rating (velvetleaf; [6]): 0
Plant response rating, Velvetleaf (velvetleaf; [7]): 0
Sugarbeets plant response rating (sugar beet; [1]): 0
Sugarbeets plant response rating (sugar beet; [2]): 0
Plant response rating, Sugarbeets (sugar beet; [3]): 0
Sugarbeets plant response rating (sugar beet; [4]): 0
Sugarbeets plant response rating (sugar beet; [5]): 0
Sugarbeets plant response rating (0 to 10 scale) (sugar beet; Preemergence, Rate 250 g/ha): 2
Sugarbeets plant response rating (sugar beet; [6]): 3
Plant response rating, Sugarbeets (sugar beet; [7]): 0
Corn plant response rating (corn; [1]): 0
Corn plant response rating (corn; [2]): 0
Plant response rating, Corn (corn; [3]): 0
Corn plant response rating (corn; [4]): 0
Corn plant response rating (corn; [5]): 0
Corn plant response rating (0 to 10 scale) (corn; Preemergence, Rate 250 g/ha): 0
Corn plant response rating (corn; [6]): 0
Plant response rating, Corn (corn; [7]): 0
Bedstraw plant response rating (bedstraw; [2]): 0
Bedstraw plant response rating (bedstraw; [4]): 0
Bedstraw plant response rating (bedstraw; [5]): 0
Bedstraw plant response rating (0 to 10 scale) (bedstraw; Preemergence, Rate 250 g/ha): 0
Bedstraw plant response rating (bedstraw; [6]): 0
Plant response rating, Bedstraw (bedstraw; [7]): 0
Nutsedge plant response rating (purple nutsedge; [1]): 0
Nutsedge plant response rating (purple nutsedge; [2]): 0
Plant response rating, Nutsedge (purple nutsedge; [3]): 0
Nutsedge plant response rating (purple nutsedge; [4]): 0
Nutsedge plant response rating (purple nutsedge; [5]): 0
Nutsedge plant response rating (0 to 10 scale) (purple nutsedge; Preemergence, Rate 250 g/ha): 0
Nutsedge plant response rating (purple nutsedge; [6]): 0
Plant response rating, Nutsedge (purple nutsedge; [7]): 0
Giant foxtail plant response rating (giant foxtail; [1]): 0
Giant foxtail plant response rating (giant foxtail; [2]): 0
Plant response rating, Giant foxtail (giant foxtail; [3]): 0
Giant foxtail plant response rating (giant foxtail; [4]): 7
Giant foxtail plant response rating (giant foxtail; [5]): 9
Giant foxtail plant response rating (0 to 10 scale) (giant foxtail; Preemergence, Rate 250 g/ha): 10
Giant foxtail plant response rating (giant foxtail; [6]): 10
Plant response rating, Giant foxtail (giant foxtail; [7]): 0
Morningglory plant response rating (morningglory; [1]): 2
Morningglory plant response rating (morningglory; [2]): 2
Plant response rating, Morningglory (morningglory; [3]): 2
Morningglory plant response rating (morningglory; [4]): 0
Morningglory plant response rating (morningglory; [5]): 0
Plant response rating, Morningglory (morningglory; [7]): 2
B. signalgrass plant response rating (surinam grass; [1]): 0
B. signalgrass plant response rating (surinam grass; [2]): 0
Plant response rating, B. signalgrass (surinam grass; [3]): 0
B. signalgrass plant response rating (surinam grass; [4]): 0
B. signalgrass plant response rating (surinam grass; [5]): 0
B. signalgrass plant response rating (0 to 10 scale, 0 is no effect, 10 is complete control) (surinam grass; Preemergence, Rate 250 g/ha): 0
B. signalgrass plant response rating (surinam grass; [6]): 0
Plant response rating, B. signalgrass (surinam grass; [7]): 0
Redroot pigweed plant response rating (pigweed; [1]): 0
Redroot pigweed plant response rating (pigweed; [2]): 0
Plant response rating, Redroot pigweed (pigweed; [3]): 8
Redroot pigweed plant response rating (pigweed; [4]): 0
Redroot pigweed plant response rating (pigweed; [5]): 0
Redroot pigweed plant response rating (0 to 10 scale) (pigweed; Preemergence, Rate 250 g/ha): 0
Redroot pigweed plant response rating (pigweed; [6]): 0
Plant response rating, Redroot pigweed (pigweed; [7]): 0

Source: patent US6737383B1, “Herbicidal oxadiazolidines” (priority 1999, dated 2004)
